# Experimental data: PubChem BioAssay AID1996
# Settings: buffer; pH 7.4; 200.0 µM
row,Structure (SMILES),solubility kinetic [µg/mL]
1,CN1CCN(CC(C)(C)NS(=O)(=O)c2ccccc2)CC1,> 46.7
2,COc1ccc(S(=O)(=O)N2CCN(Cc3cccnc3)CC2)cc1,> 52.1
3,O=[N+]([O-])c1cccc(S(=O)(=O)NCCc2cccs2)c1,> 46.9
4,O=C(COC(=O)Cn1cnc2ccccc21)Nc1ccc(OC(F)F)cc1,> 56.3
5,Cc1cc(-c2onc(C)c2C(N)=O)no1,> 31.1
6,C=CCNC(=O)COC(=O)COc1ccc(Cl)cc1,> 42.6
7,CCOC(=O)C1CCN(C(=O)Nc2ccc(OC(F)(F)F)cc2)CC1,16.1
8,COc1ccc(CNC(=O)COC(=O)c2cccn2C)cc1,> 45.3
9,OCCCC1CCCCN1Cc1nc(Cc2ccccc2Cl)no1 (stereo unspecified),43.4
10,CSc1ncccc1C(=O)Nc1ccncc1,34.6
11,CCOc1cc(CN2CCN(c3ncccn3)CC2)ccc1OC,43.4
12,COC(=O)c1scc(C)c1NC(=O)c1ccccc1F,> 44
13,Cc1nc(-c2ccc(NC(=O)Cc3ccccc3)cc2)cs1,1
14,CC1CCCC(C)N1CC(O)COC1CCC(C(C)(C)C)CC1.Cl (stereo unspecified),46.9
15,O=C(CSc1cccs1)Nc1ccc(Cl)cc1,36.5
16,CCC(C)[C@H](NC(=O)Nc1ccc2c(c1)OCCO2)C(=O)OC (stereo partly specified),> 48.4
17,Cc1nc(-c2cc(-c3ccc(Cl)cc3)no2)cs1,< 0.3
18,O=C1C/C(=C\c2c(F)cccc2Cl)N2CCC1CC2,39.7
19,COc1cc(OC)cc(C(=O)NC2CC3CCC(C2)N3C)c1 (stereo unspecified),38.4
20,Cl.O=C(OCCN1CCCCC1)c1ccccc1F,> 43.2
21,Cc1ccc(C)c(C(=O)CCC(=O)Nc2ccc(N3CCN(C)CC3)cc2C)c1,55.8
22,O=C1N=C(N2CCOCC2)S/C1=C\c1ccncc1,> 41.3
23,COc1ccccc1C(=O)NCCC(=O)NCC(c1ccccc1)N(C)C (stereo unspecified),> 55.4
24,CC(=O)O.Fc1ccc(NC(=S)Nc2cccnc2)cc1,> 46.1
25,COc1ccc(-c2c(C)nc(N)nc2-c2ccc(OC)cc2O)cc1,7.4

row,Structure (SMILES),solubility kinetic [µg/mL]
1,Cc1oc(-c2ccccc2)cc1C(=O)NCc1ccncc1,36.7
2,CC1Cc2ccccc2N1CC(=O)NC(=O)NC(C)(C)C (stereo unspecified),30.7
3,CCN(CC)Cc1ccc(OC)c(Cl)c1.Cl,> 39.6
4,O=C(COc1ccc(Br)cc1)N1CCNC1=O,> 44.9
5,CC1(C)c2ccccc2N2CC(=O)N[C@@]21/C=C/C=C/c1ccccc1,0.9
6,CCOC(=O)c1cc(-c2csc(COc3ccccc3)n2)on1,0.4
7,COC(=O)CN=Cc1c(O)n(-c2ccc(Cl)cn2)c(=O)c2ccccc12,> 55.8
8,CSc1nc2sc3c(c2c(=O)n1CC(C)C)CC(C)(C)OC3,< 0.4
9,O=C(COC(=O)c1ccc(Cl)nc1)NCc1cccs1,25.2
10,CCOc1ccc(N=C2SCC(=O)N2CC)cc1,33.6
11,Cl.Clc1ccccc1CSC1=NCCN1,> 39.5
12,COc1cc(C(=O)Nc2ccc(C)cn2)c([N+](=O)[O-])cc1OC,> 47.6
13,CC(C)COc1ccc(C(=S)N2CCCC2)cc1,21.2
14,Cc1nc(-c2ccc([N+](=O)[O-])cc2)c(-c2ccccc2)o1,5.1
15,O=C(C1CCCCCC1)N1CC[C@@H](N2CCC(O)CC2)[C@H](O)C1,> 48.7
16,COc1cccc(C(=O)O/N=C(\N)c2ccc(C)cc2)c1,10.2
17,CCNc1cc(N2CCN(C)CC2)ccc1[N+](=O)[O-],> 39.6
18,O=C(NCCCN1CCOCC1)c1ccc(Cl)cc1[N+](=O)[O-],49.1
19,Clc1ccc(OCc2noc(-c3ccsc3)n2)c(Cl)c1,< 0.4
20,O=C(COC(=O)COc1ccccc1F)Nc1ccc2c(c1)OCO2,> 52.1
21,COc1cc(C(=O)NC(C)C2CC3CCC2C3)cc(OC)c1OC (stereo unspecified),9.8
22,CCCN(C(=O)/C=C/c1ccc(S(=O)(=O)N(CC)CC)cc1)C1CCS(=O)(=O)C1 (stereo unspecified),> 66.4
23,CCOc1ccc(CNCCc2ccc3c(c2)OCO3)cc1,> 44.9
24,O=C(Nc1ccc(OC(F)(F)F)cc1)c1ccc2nccnc2c1,11.4
25,COc1ccc(C(C)NC(=O)C23CC4CC(CC(C4)C2)C3)cc1OC (stereo unspecified),40.2

row,Structure (SMILES),solubility kinetic [µg/mL]
1,CCOc1ccc(S(=O)(=O)N(C)C2CCCCC2)cc1,18.1
2,CC(=O)Nc1ccc(SCC(=O)Nc2ccccc2N2CCOCC2)cc1,3.9
3,CC(C)Oc1ccc(Cc2cnc(=S)[nH]c2N)cc1,15.4
4,Cc1cc(C(=O)Nc2nncs2)oc1C,> 33.5
5,O=C1CCCC2=C1C(c1ccsc1)CC(=O)N2c1ccccc1F (stereo unspecified),> 51.2
6,O=S(=O)(Nc1nc2ccc(Cl)cc2s1)c1cccs1,12.2
7,Cc1ccc(/C=C2\SC(N3CCCCC3)=NC2=O)cc1,5.7
8,O=C(NCC(=O)N1CC=C(c2ccccc2)CC1)c1ccc(F)cc1,9
9,COc1ccccc1-c1noc(CCC(=O)NC2CCCC2)n1,> 47.3
10,COC(=O)CN1C(=O)c2cccc3cccc1c23,> 36.2
11,Cc1ccc(CN2C(=O)C(=O)N(CC(N)=O)C2=O)cc1,> 41.3
12,COc1ccc(CN2CC(C(N)=O)Oc3ccccc32)cc1F (stereo unspecified),35.6
13,COc1cccc(NC(=O)CN(C)C(=O)c2cc(C)on2)c1,> 45.5
14,CC1CCCC(NC(=O)CSc2ncccn2)C1C (stereo unspecified),> 41.9
15,Cc1ccccc1CNCc1ccc2c(c1)OCO2.O=C(O)C(=O)O,> 51.8
16,CC1(C)CC(CCN)(Cc2ccccc2Cl)CCO1 (stereo unspecified),37.7
17,CC(=O)c1cccc(NC2c3ccccc3C(=O)N2Cc2ccco2)c1 (stereo unspecified),43.3
18,COc1ccccc1C(=O)NCc1ccccn1,> 36.3
19,COCC(C)N=C1SCCN1Cc1ccccc1 (stereo unspecified),35.3
20,CCn1c(=O)cc(C(F)(F)F)[nH]c1=S,> 33.6
21,Nc1ccccc1SCc1ccccc1Cl,3.3
22,CCOc1ccc(N2CC(C(=O)NC3=NCCS3)CC2=O)cc1 (stereo unspecified),> 50
23,Cc1ccc(-c2nc(N)s[n+]2-c2ccccc2)cc1.[Br-],21
24,Nc1c(C(=O)Nc2ccccc2F)sc2nc(-c3cccnc3)ccc12,4.2
25,NC(=S)c1cc2cc(Cl)ccc2oc1=O,1.6

row,Structure (SMILES),solubility kinetic [µg/mL]
1,COc1cc2c(cc1OC)CN(C(=O)c1ccc(Br)o1)CC2,> 54.9
2,CN1CCCC(OC(=O)/C(C#N)=C/c2ccccc2)C1.Cl (stereo unspecified),> 46
3,C=CCNc1nc(Cl)nc(Nc2ccccc2)n1,2.2
4,Cc1ccc(C(=O)NCC(=O)Nc2ccc(Cl)cc2)s1,4.6
5,Cc1ccc(C)c(NC(=O)CCc2ccc(C)o2)c1,24.6
6,O=C(NC1(C(F)(F)F)OCCO1)c1ccc(F)cc1,32.9
7,NC(=O)c1ccccc1NC(=O)c1ccc2ccccc2c1,< 0.3
8,CC(=O)c1c(C)[nH]c(C(=O)COC(=O)c2ccc(C)s2)c1C,3.5
9,Cl.O=C(NN1C(=O)CSC1=S)c1cccnc1,> 43.5
10,O=C(Nc1ncc([N+](=O)[O-])s1)c1ccc2c(c1)OCO2,24.9
11,CCc1noc(C)c1C(=O)NCCc1ccc(F)cc1,> 41.4
12,CCN1CCN(c2ccc(NC(=O)c3cccc(S(=O)(=O)N4CCCC4)c3)cc2)CC1,63.2
13,CCOc1ccc(NC2=NCCCS2)cc1,> 35.4
14,COc1cc(OC)c(C(=O)Nc2cccnc2)cc1OC,> 43.2
15,CC1CCCCC1NC1CCN(C)CC1 (stereo unspecified),> 31.6
16,CC1CCCN(CC(=O)Nc2ccc(S(=O)(=O)N3CCCC3)cc2)C1 (stereo unspecified),> 54.8
17,CCOc1ccc(CNc2ncc(-c3ccccc3)n2C)cc1,26
18,Cc1ccc(SCCC(=O)Nc2nccs2)cc1,2.5
19,Cc1ccc2c(c1)C1C[N+](C)(CC(=O)c3ccccc3)CCC1N2C(=O)c1ccccc1Cl.[Br-] (stereo unspecified),78
20,CN1CCN(c2ccc(NC(=O)c3ccco3)cc2Cl)CC1,45.3
21,Cc1ccc(NC(=O)CCCn2c(=O)oc3ccccc32)c(O)c1,12.6
22,CC(=O)c1cnc(-c2ccccn2)s1,28.3
23,O=C(/C=C/c1ccc2c(c1)OCO2)NC1CCCC1,31.4
24,COc1cccc(NC(=O)CNCc2ccccc2)c1.Cl,> 46
25,O=C(Cc1ccccc1)NNC(=S)NC(=O)c1cccnc1,> 47.2

row,Structure (SMILES),solubility kinetic [µg/mL]
1,COc1cc(C(=O)NCc2ccc3c(c2)OCO3)c([N+](=O)[O-])cc1OC,38.3
2,O=C(NCCCNC(=O)c1ccccc1F)c1ccco1,43.4
3,CCCCOC(=O)C1=C(C)NC(=O)NC1c1cccc([N+](=O)[O-])c1 (stereo unspecified),12.3
4,C=CCNC(=S)N1CCN(C2CCCCC2)CC1,> 40.1
5,CCc1ccc(N2C(=O)C3CCCN3C2=S)cc1 (stereo unspecified),29.4
6,CN(C(=O)c1cccc(S(=O)(=O)NCc2ccccc2)c1)C1CCCCC1,50.7
7,COc1cc(OC)c(C(=O)Nc2ccc(C(=O)c3ccccc3)cc2)cc1OC,3.4
8,Cc1ccc(C)c(NC(=O)C2CC(=O)N(C3CCCCC3)C2)c1 (stereo unspecified),41.5
9,NC(=O)NC(CC(=O)N1CCc2ccccc2C1)c1ccc(Cl)cc1 (stereo unspecified),49.9
10,Cc1nnc(Nc2ccc(C(=O)O)cc2)[nH]c1=O,> 36.9
11,COc1cccc(C2/C(=C(/O)c3ccc4c(c3)CC(C)O4)C(=O)C(=O)N2CC2CCCO2)c1 (stereo unspecified),64.7
12,COc1ccccc1NC(=S)NC(C)C(c1cccs1)N1CCOCC1 (stereo unspecified),> 58.7
13,Cc1nc(SCC(=O)N2CCCCC2)c2c(C)c(C)sc2n1,33.7
14,COc1cccc(C2Nc3ccccc3NC3=C2C(=O)CC(C)(C)C3)c1 (stereo unspecified),40.2
15,O=C(Cn1cnc2ccccc2c1=O)NCc1cccs1,35.6
16,CC(=O)Nc1ccccc1OCC(=O)NCCC1=CCCCC1,> 47.5
17,O=C(Cn1cc([N+](=O)[O-])cn1)N1CCN(c2ccccc2)CC1,> 47.3
18,Cc1ccnc(SCC(=O)c2cc3ccccc3o2)n1,1.3
19,COc1ccc(C(=O)c2sc(Nc3ccccc3)nc2C)cc1,3.4
20,O=[N+]([O-])c1ccc(N2CCN(c3ccc(F)cc3)CC2)nc1,0.3
21,CCCCCCNc1nc(Cl)nc(NC(C)(C)CO)n1,3.1
